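Dose response: 5 concentrations. Exposure: 48 h. Format: 96-well plates. Endpoint: linear interpolation; highest concentration if not reached. GI50 is the concentration that inhibits growth by half.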 Active and inactive are the calls of the source. Rule as the data show it: active = GI50 up to about 1.1 µM and inactive = higher.
Legend:
Assay in all cases: NCI-60 cell line screen, 48 h
[1] = tested on: 786-0
[2] = tested on: A498
[3] = tested on: A549
[4] = tested on: ACHN
[5] = tested on: CAKI-1
[6] = tested on: CCRF-CEM
[7] = tested on: COLO 205
[8] = tested on: DLD-1
[9] = tested on: DMS-114
[10] = tested on: DMS-273
[11] = tested on: EKVX
[12] = tested on: HCC 2998
[13] = tested on: HCT-116
[14] = tested on: HCT-15
[15] = tested on: HL-60
[16] = tested on: HOP-18
[17] = tested on: HOP-62
[18] = tested on: HOP-92
[19] = tested on: HT-29
[20] = tested on: IGROV-1
[21] = tested on: K562
[22] = tested on: KM-20L2
[23] = tested on: KM12
[24] = tested on: LOX IMVI
[25] = tested on: LXFL 529
[26] = tested on: M14
[27] = tested on: M19-MEL
[28] = tested on: MOLT-4
[29] = tested on: Malme-3M
[30] = tested on: NCI-H226
[31] = tested on: NCI-H23
[32] = tested on: NCI-H460
[33] = tested on: NCI-H522
[34] = tested on: OVCAR-3
[35] = tested on: OVCAR-4
[36] = tested on: OVCAR-5
[37] = tested on: OVCAR-8
[38] = tested on: RXF 393
[39] = tested on: SF-268
[40] = tested on: SF-295
[41] = tested on: SF-539
[42] = tested on: SK-MEL-28
[43] = tested on: SK-MEL-2
[44] = tested on: SK-MEL-5
[45] = tested on: SK-OV-3
[46] = tested on: SN12C
[47] = tested on: SNB-19
[48] = tested on: SNB-75
[49] = tested on: SNB-78
[50] = tested on: SR
[51] = tested on: SW-620
[52] = tested on: TK-10
[53] = tested on: U-251
[54] = tested on: UACC-257
[55] = tested on: UACC-62
[56] = tested on: UO-31
[57] = tested on: RPMI-8226
[58] = tested on: XF498

OCC[N+]12CCCN1CCC2
GI50 [1]: > 100 µM (inactive)
GI50 [2]: > 100 µM (inactive)
GI50 [3]: > 100 µM (inactive)
GI50 [4]: > 100 µM (inactive)
GI50 [5]: > 100 µM (inactive)
GI50 [6]: > 100 µM (inactive)
GI50 [7]: > 100 µM (inactive)
GI50 [8]: > 100 µM (inactive)
GI50 [9]: > 100 µM (inactive)
GI50 [10]: > 100 µM (inactive)
GI50 [11]: > 100 µM (inactive)
GI50 [12]: > 100 µM (inactive)
GI50 [13]: > 100 µM (inactive)
GI50 [14]: > 100 µM
GI50 [15]: > 100 µM (inactive)
GI50 [16]: > 100 µM (inactive)
GI50 [17]: > 100 µM (inactive)
GI50 [18]: > 100 µM (inactive)
GI50 [19]: > 100 µM (inactive)
GI50 [20]: > 100 µM (inactive)
GI50 [21]: > 100 µM (inactive)
GI50 [22]: > 100 µM (inactive)
GI50 [23]: > 100 µM (inactive)
GI50 [24]: > 100 µM (inactive)
GI50 [25]: > 100 µM (inactive)
GI50 [26]: > 100 µM (inactive)
GI50 [27]: > 100 µM (inactive)
GI50 [28]: > 100 µM (inactive)
GI50 [29]: > 100 µM (inactive)
GI50 [30]: > 100 µM (inactive)
GI50 [31]: > 100 µM (inactive)
GI50 [32]: > 100 µM (inactive)
GI50 [33]: > 100 µM (inactive)
GI50 [34]: > 100 µM (inactive)
GI50 [35]: > 100 µM (inactive)
GI50 [36]: > 100 µM (inactive)
GI50 [37]: > 100 µM (inactive)
GI50 [38]: > 100 µM (inactive)
GI50 [39]: > 100 µM (inactive)
GI50 [40]: > 100 µM (inactive)
GI50 [41]: > 100 µM (inactive)
GI50 [42]: > 100 µM (inactive)
GI50 [43]: > 100 µM (inactive)
GI50 [44]: > 100 µM (inactive)
GI50 [45]: > 100 µM (inactive)
GI50 [46]: > 100 µM (inactive)
GI50 [47]: > 100 µM (inactive)
GI50 [48]: 61.7 µM (inactive)
GI50 [49]: > 100 µM (inactive)
GI50 [50]: > 100 µM (inactive)
GI50 [51]: > 100 µM (inactive)
GI50 [52]: > 100 µM (inactive)
GI50 [53]: > 100 µM (inactive)
GI50 [54]: > 100 µM (inactive)
GI50 [55]: > 100 µM (inactive)
GI50 [56]: > 100 µM (inactive)

CCNC(=O)OCc1c(COC(=O)NCC)c(-c2ccc(Cl)c(Cl)c2)n2c1CCC2
GI50 [1]: 8.63 µM (inactive)
GI50 [3]: 18.5 µM (inactive)
GI50 [4]: 4.88 µM (inactive)
GI50 [5]: 3.01 µM (inactive)
GI50 [6]: 4.09 µM (inactive)
GI50 [7]: 24.9 µM (inactive)
GI50 [8]: 11.8 µM (inactive)
GI50 [9]: 9.02 µM (inactive)
GI50 [10]: 9.48 µM (inactive)
GI50 [12]: 14.3 µM (inactive)
GI50 [13]: 9.4 µM (inactive)
GI50 [14]: 13.6 µM
GI50 [15]: 3.24 µM (inactive)
GI50 [17]: 7.33 µM (inactive)
GI50 [18]: 5.5 µM (inactive)
GI50 [19]: 18.3 µM (inactive)
GI50 [20]: 9.31 µM (inactive)
GI50 [21]: 8.61 µM (inactive)
GI50 [22]: 16.9 µM (inactive)
GI50 [23]: 25.9 µM (inactive)
GI50 [25]: 15.3 µM (inactive)
GI50 [26]: 11.1 µM (inactive)
GI50 [27]: 23.3 µM (inactive)
GI50 [28]: 5.06 µM (inactive)
GI50 [29]: 16.6 µM (inactive)
GI50 [30]: 1.75 µM (inactive)
GI50 [31]: 8.05 µM (inactive)
GI50 [32]: 4.61 µM (inactive)
GI50 [33]: 6.58 µM (inactive)
GI50 [34]: 17.6 µM (inactive)
GI50 [35]: 15.2 µM (inactive)
GI50 [36]: 20.3 µM (inactive)
GI50 [37]: 12.6 µM (inactive)
GI50 [57]: 7.18 µM (inactive)
GI50 [39]: 6.55 µM (inactive)
GI50 [40]: 11.7 µM (inactive)
GI50 [41]: 11.5 µM (inactive)
GI50 [42]: 14.9 µM (inactive)
GI50 [43]: 13.1 µM (inactive)
GI50 [44]: 14.9 µM (inactive)
GI50 [47]: 21.5 µM (inactive)
GI50 [48]: 11.1 µM (inactive)
GI50 [50]: 3.21 µM (inactive)
GI50 [51]: 13.8 µM (inactive)
GI50 [52]: 10.9 µM (inactive)
GI50 [53]: 10.5 µM (inactive)
GI50 [54]: 12.2 µM (inactive)
GI50 [55]: 5.92 µM (inactive)
GI50 [56]: 5.22 µM (inactive)
GI50 [58]: 16.1 µM (inactive)

C=CCCOC(=O)CO[N+](=O)[O-]
GI50 [1]: > 100 µM (inactive)
GI50 [3]: > 100 µM (inactive)
GI50 [4]: > 100 µM (inactive)
GI50 [5]: > 100 µM (inactive)
GI50 [6]: > 100 µM (inactive)
GI50 [7]: > 100 µM (inactive)
GI50 [8]: > 100 µM (inactive)
GI50 [9]: > 100 µM (inactive)
GI50 [10]: > 100 µM (inactive)
GI50 [11]: > 100 µM (inactive)
GI50 [12]: > 100 µM (inactive)
GI50 [13]: > 100 µM (inactive)
GI50 [14]: > 100 µM
GI50 [15]: 23.2 µM (inactive)
GI50 [17]: > 100 µM (inactive)
GI50 [19]: > 100 µM (inactive)
GI50 [20]: > 100 µM (inactive)
GI50 [21]: > 100 µM (inactive)
GI50 [22]: > 100 µM (inactive)
GI50 [23]: > 100 µM (inactive)
GI50 [24]: > 100 µM (inactive)
GI50 [25]: > 100 µM (inactive)
GI50 [26]: > 100 µM (inactive)
GI50 [27]: > 100 µM (inactive)
GI50 [28]: > 100 µM (inactive)
GI50 [29]: > 100 µM (inactive)
GI50 [30]: > 100 µM (inactive)
GI50 [31]: > 100 µM (inactive)
GI50 [32]: > 100 µM (inactive)
GI50 [33]: > 100 µM (inactive)
GI50 [34]: > 100 µM (inactive)
GI50 [35]: > 100 µM (inactive)
GI50 [36]: > 100 µM (inactive)
GI50 [37]: > 100 µM (inactive)
GI50 [57]: > 100 µM (inactive)
GI50 [38]: > 100 µM (inactive)
GI50 [39]: > 100 µM (inactive)
GI50 [40]: > 100 µM (inactive)
GI50 [41]: > 100 µM (inactive)
GI50 [42]: > 100 µM (inactive)
GI50 [43]: > 100 µM (inactive)
GI50 [45]: > 100 µM (inactive)
GI50 [46]: > 100 µM (inactive)
GI50 [47]: > 100 µM (inactive)
GI50 [48]: > 100 µM (inactive)
GI50 [50]: > 100 µM (inactive)
GI50 [51]: > 100 µM (inactive)
GI50 [52]: > 100 µM (inactive)
GI50 [53]: > 100 µM (inactive)
GI50 [54]: > 100 µM (inactive)
GI50 [56]: > 100 µM (inactive)
GI50 [58]: > 100 µM (inactive)
